# Test results published in US20060173632A1, “Method for predicting effectiveness of chemotherapy” (SYSMEX CORPORATION, priority 2005, published 2006).
# Columns and labels:
# Assay type in all cases: in vivo
# Set-up in all cases: key: Type I mouse is a mouse confirmed to highly sensitive to the anticancer agent. By administering paclitaxel into this type of mouse, the tumor almost disappeared; Type II mouse is a mouse whose sensitivity to the anticancer agent was confirmed to be moderate. By administering paclitaxel into this type of mouse, the increase in tumor size is suppressed; Type III mouse is a mouse confirmed to be poor in sensitivity to the anticancer agent. Even if paclitaxel is administered into this type of mouse, the tumor size continues increasing
# [1] = test system: human-derived breast cancer cultured cells (cell D); assay: Paclitaxel effect on tumor size in mice grafted with breast cancer cells D; conditions: Cell D graft; paclitaxel 20 mg/kg/day once a day for 5 day; change in tumor size to day 11; one line per mouse
# Experimental: (§1) Five kinds of human-derived breast cancer cultured cells (cells A to E) were transplanted subcutaneously into the back of mice, and the mice were maintained for 21 to 28 days to graft the breast tumor cells thereon. 50 mice (Nos. 1 to 50 (Table 2)) on which the breast tumor cells had been grafted were thus created. From the back of each of these mice, a 2.5 mm×2.5 mm tissue section (about 50 mg) was cut off, and a lysis buffer (containing 0.1 w/v % Nonidet P-40 (NP-40) (manufactured by Calbiochem), 50 mM Tris-HCl (pH 7.4), 5 mM EDTA, 50 mM sodium fluoride, 1 mM sodium orthovanadate and 100 μl/ml protease cocktail (Sigma)) was added to this tissue section. The tissue section in the lysis buffer was homogenized with an electric homogenizer.
# (§2) 20 mg/kg (mouse weight)/day of paclitaxel was administered once a day into each of mice Nos. 1 to 50 for 5 day. The tumor size from the initiation of administration to day 11 was measured. Depending on change in tumor size, mice Nos. 1 to 50 were classified into types I, II and III. Type I mouse is a mouse confirmed to highly sensitive to the anticancer agent. By administering paclitaxel into this type of mouse, the tumor almost disappeared. Type II mouse is a mouse whose sensitivity to the anticancer agent was confirmed to be moderate. By administering paclitaxel into this type of mouse, the increase in tumor size is suppressed. […]
# [2] = test system: human-derived breast cancer cultured cells (cell A); assay: Paclitaxel effect on tumor size in mice grafted with breast cancer cells A; conditions: Cell A graft; paclitaxel 20 mg/kg/day once a day for 5 day; change in tumor size to day 11; one line per mouse
# Experimental: as §1, §2
# [3] = test system: human-derived breast cancer cultured cells (cell B); assay: Paclitaxel effect on tumor size in mice grafted with breast cancer cells B; conditions: Cell B graft; paclitaxel 20 mg/kg/day once a day for 5 day; change in tumor size to day 11; one line per mouse
# Experimental: as §1, §2
# [4] = test system: human-derived breast cancer cultured cells (cell C); assay: Paclitaxel effect on tumor size in mice grafted with breast cancer cells C; conditions: Cell C graft; paclitaxel 20 mg/kg/day once a day for 5 day; change in tumor size to day 11; one line per mouse
# Experimental: as §1, §2
# [5] = test system: human-derived breast cancer cultured cells (cell E); assay: Paclitaxel effect on tumor size in mice grafted with breast cancer cells E; conditions: Cell E graft; paclitaxel 20 mg/kg/day once a day for 5 day; change in tumor size to day 11; one line per mouse
# Experimental: as §1, §2
smiles,measurement,setting,value
CC(=O)O[C@H]1C(=O)[C@@]2(C)[C@H]([C@H](OC(=O)c3ccccc3)[C@]3(O)C[C@H](OC(=O)[C@H](O)[C@@H](NC(=O)c4ccccc4)c4ccccc4)C(C)=C1C3(C)C)[C@]1(OC(C)=O)CO[C@@H]1C[C@@H]2O [paclitaxel],result of (4),[1],Type III
same,result of (4),[2],Type I
same,result of (4),[3],Type II
same,result of (4),[4],Type II
same,result of (4),[5],Type III
